Data: US8173654B2, “Triazolopyridazine compounds” (Janssen Pharmaceutica N.V., priority 2005, dated 2012)

Columns and labels:
[1] = system: HepG2 cells; experiment: HepG2 cellular scatter assay (HGF-induced, RT-CES impedance); format: cell-based; details: Homo sapiens, 40 ng/ml HGF
Excerpt: Human Growth Factor (HGF) and its receptor (c-Met) are involved in cellular motility. Indeed HGF was also identified as Scatter Factor (SF), based on its powerful motility effect on certain cell types. Cellular motility is critical for pathological processes of oncologic disease, most importantly, the establishment of metastatic lesions distant from the primary tumor and formation of new blood vessels (angiogenesis). One therapeutic hypothesis is that this movement of cell types may be blunted or eliminated by the use of c-Met kinase inhibitors. (See: Jiang, W. C, Martin, T. A., Parr, C., Davies, G., Matsumoto, K. and Nakamura, T. Critical Reviews in Oncology/Hematology 53 (2005) 35-69. and references cited therein.) It should also be noted that cellular motility, especially with regard to angiogenesis, is important in other disease states.
Cellular scatter was measured with a Real-Time Cell Electronic Sensing system (RT-CES), from ACEA Biosciences Inc. (San Diego, Calif.). The RT-CES system uses specialized RT-ACE microtiter plates (cat:RCD96, ACEA Biosciences Inc.) to non-invasively quantify cellular status in real-time. The interaction of cells with the surface of the plates, which are integrated with microelectronic sensor arrays, leads to the generation of a cell-electrode impedance response. A higher impedance value indicates more cell attachment and thus less cellular scatter.
50 μl of Assay Media (MEM supplemented with 10% FBS, 2 mM L-glutamine, 1.5 g/L sodium bicarbonate, 1 mM sodium pyruvate, and 0.1 mM non-essential amino acids) was added into 96-well RT-ACE plates and recorded for 30 min on the RT-CES. 50 μl of HepG2 cells (cat: HB-8065, ATCC) were added into each well ([…]). The plate was read in RT-CES and incubated for 20-24 hours. After the 20-24 hours incubation, 50 μl of Assay Media containing different concentrations of testing compounds was added into each well and incubated for 1 hour. Finally, 50 μl of Assay Media containing 160 ng/ml of HGF was added into each well (40 ng/ml in 200 μl). The plate was incubated and read in the RT-CES for 20-24 hours, with a record time every 15 minutes. The positive control was HGF without compounds and negative control was no-HGF without compound. All determinations were performed in duplicate wells and IC50 values were calculated using GraphPad Prism software (GraphPad Software; San Diego, Calif.).

[2] = biological target: T1, c-Met (Homo sapiens, UniProt P08581); experiment: Cell based ELISA assay for HGF stimulated c-Met phosphorylation in S114 cells; parameters: expressed in transfected cells; host or cells: S114 (murine NIH 3T3 derived); details: read-out: c-Met Cell ELISA IC-50
Target sequence in this assay (P08581 25-1390): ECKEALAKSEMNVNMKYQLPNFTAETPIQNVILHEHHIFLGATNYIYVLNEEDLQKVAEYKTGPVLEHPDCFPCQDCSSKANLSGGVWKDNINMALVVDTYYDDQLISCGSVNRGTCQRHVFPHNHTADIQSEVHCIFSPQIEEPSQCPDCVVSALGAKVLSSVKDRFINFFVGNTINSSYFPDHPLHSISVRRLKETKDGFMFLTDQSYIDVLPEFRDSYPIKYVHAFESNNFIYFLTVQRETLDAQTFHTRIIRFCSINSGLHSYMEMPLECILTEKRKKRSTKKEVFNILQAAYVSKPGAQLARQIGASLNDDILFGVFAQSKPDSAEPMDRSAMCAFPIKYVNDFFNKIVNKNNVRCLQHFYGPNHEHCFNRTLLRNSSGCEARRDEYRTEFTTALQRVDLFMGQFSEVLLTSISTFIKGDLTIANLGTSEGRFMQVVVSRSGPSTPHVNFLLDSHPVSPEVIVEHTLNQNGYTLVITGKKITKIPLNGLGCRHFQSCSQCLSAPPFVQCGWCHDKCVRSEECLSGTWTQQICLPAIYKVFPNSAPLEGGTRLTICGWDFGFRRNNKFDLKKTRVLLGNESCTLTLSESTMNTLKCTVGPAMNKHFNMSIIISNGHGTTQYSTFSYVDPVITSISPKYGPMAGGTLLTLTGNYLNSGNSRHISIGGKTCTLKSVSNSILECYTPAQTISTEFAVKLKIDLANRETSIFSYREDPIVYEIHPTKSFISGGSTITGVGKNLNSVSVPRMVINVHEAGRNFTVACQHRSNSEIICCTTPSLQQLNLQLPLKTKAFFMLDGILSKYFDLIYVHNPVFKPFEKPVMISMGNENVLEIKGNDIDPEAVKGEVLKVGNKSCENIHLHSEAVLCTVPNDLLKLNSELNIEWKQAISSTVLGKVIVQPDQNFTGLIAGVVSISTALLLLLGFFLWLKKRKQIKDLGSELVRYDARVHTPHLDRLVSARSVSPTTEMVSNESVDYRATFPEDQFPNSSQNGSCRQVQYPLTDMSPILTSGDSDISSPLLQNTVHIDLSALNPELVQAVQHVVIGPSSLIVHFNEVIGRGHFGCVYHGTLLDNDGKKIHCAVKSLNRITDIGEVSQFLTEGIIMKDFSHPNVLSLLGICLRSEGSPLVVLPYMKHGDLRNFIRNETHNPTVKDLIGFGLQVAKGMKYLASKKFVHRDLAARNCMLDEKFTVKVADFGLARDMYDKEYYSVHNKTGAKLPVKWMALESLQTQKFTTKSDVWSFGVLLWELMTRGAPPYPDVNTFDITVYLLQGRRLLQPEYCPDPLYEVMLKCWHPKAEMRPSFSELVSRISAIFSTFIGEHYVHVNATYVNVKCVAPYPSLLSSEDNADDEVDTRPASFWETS

[3] = biological target: T1, c-Met; experiment: Delfia autophosphorylation kinase assay on the c-Met; format: biochemical; parameters: The purified His6 tagged cytoplasmic domain of c-Met was diluted to a concentration of 500 ng/ml; host or cells: Sf9 insect cells (baculovirus, pFastBacHTa); details: His6 tagged cytoplasmic domain of c-Met, 1 μM ATP; read-out: cMet Delfia autophos IC-50
How it was run: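 Time-resolved fluorescence tracked autophosphorylation of the His6-tagged c-Met cytoplasmic domain, dispensed at 500 ng/ml onto nickel-chelate plates. Reaction buffer held 1 μM ATP, 10 mM MgCl2, vanadate and DTT at pH 8.0, for 1 h at room temperature.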
Target sequence in this assay (P08581 956-1390 limits assumed): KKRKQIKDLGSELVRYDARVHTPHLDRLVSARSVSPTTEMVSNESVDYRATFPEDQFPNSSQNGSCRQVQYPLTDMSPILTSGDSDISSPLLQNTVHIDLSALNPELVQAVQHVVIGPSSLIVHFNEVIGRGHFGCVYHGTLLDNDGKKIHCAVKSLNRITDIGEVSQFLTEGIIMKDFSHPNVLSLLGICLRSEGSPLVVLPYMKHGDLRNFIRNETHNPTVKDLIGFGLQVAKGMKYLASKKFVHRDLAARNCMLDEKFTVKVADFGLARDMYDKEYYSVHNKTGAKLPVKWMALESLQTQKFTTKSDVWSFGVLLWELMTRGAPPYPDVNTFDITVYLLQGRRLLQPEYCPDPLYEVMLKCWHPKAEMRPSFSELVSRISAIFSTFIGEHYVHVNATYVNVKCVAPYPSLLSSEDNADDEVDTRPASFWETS

SMILES | IC50 [1] [nM] | IC50 [2] [nM] | IC50 [3] [nM]
FC(F)(c1ccc2ncccc2c1)c1nnc2ccc(-c3ccncc3)nn12 [Example 60, 6-[Difluoro-(6-pyridin-4-yl-[1,2,4]triazolo[4,3-b]pyridazin-3-yl)-methyl]-quinoline] | 287 | 12 | 1
Cc1cc(-c2ccc3nnc(C(F)(F)c4ccc5ncccc5c4)n3n2)ccn1 [Example 86, 6-{Difluoro-[6-(2-methyl-pyridin-4-yl)-[1,2,4]triazolo[4,3-b]pyridazin-3-yl]-methyl}-quinoline] | 715 | 34 | 2.8
CN1CCN(C(=O)c2ccc(-c3ccc4nnc(C(F)(F)c5ccc6ncccc6c5)n4n3)s2)CC1 [Example 97, {5-[3-(Difluoro-quinolin-6-yl-methyl)-[1,2,4]triazolo[4,3-b]pyridazin-6-yl]thiophen-2-yl}-(4-methyl-piperazin-1-yl)-methanone] | 1160 | 3 | 3
CS(=O)(=O)N1CCN(C(=O)c2ccc(-c3ccc4nnc(C(F)(F)c5ccc6ncccc6c5)n4n3)s2)CC1 [Example 98, {5-[3-(Difluoro-quinolin-6-yl-methyl)-[1,2,4]triazolo[4,3-b]pyridazin-6-yl]-thiophen-2-yl}-(4-methanesulfonyl-piperazin-1-yl)-methanone] | 64 | 4 | 2
CS(=O)(=O)n1cc(-c2ccc3nnc(C(F)(F)c4ccc5ncccc5c4)n3n2)cn1 [Example 99, 6-{Difluoro-[6-(1-methanesulfonyl-1H-pyrazol-4-yl)-[1,2,4]triazolo[4,3-b]pyridazin-3-yl]-methyl}-quinoline] | 1100 | 34 | 2
CCCc1ncc(-c2ccc3nnc(C(F)(F)c4ccc5ncccc5c4)n3n2)s1 [Example 104, 6-{Difluoro-[6-(2-propyl-thiazol-5-yl)-[1,2,4]triazolo[4,3-b]pyridazin-3-yl]-methyl}-quinoline] | 543 | 37 | 2
